# In patent US20240366612A1, “COMPOUNDS AND METHODS FOR MODULATING NUCLEIC ACID SPLICING” (REMIX THERAPEUTICS INC., priority 2021, published 2024):
# How the values were obtained:
# MYB mRNA = assay: Splicing RT-qPCR assay, MYB canonical (CJ) and alternative (AJ) junction mRNA; assay type: cell-based; conditions: Homo sapiens, A673 or K562 cells, 24 hours treatment; for IC50: decrease in CJ mRNA; for AC50: increase in AJ mRNA
# Experimental: (§1) Compounds described herein were used to modulate RNA transcript abundance in cells. The expression of a target mRNA was measured by detecting the formation of an exon-exon junction in the canonical transcript (CJ). A compound mediated exon-inclusion event was detected by observing an increase in formation of a new junction with an alternative exon (AJ). Real-time qPCR assays were used to detect these splicing switches and interrogate the potency of various compounds towards different target genes. A high-throughput real time quantitative PCR (RT-qPCR) assay was developed to measure these two isoforms of the mRNA (CJ and AJ) for exemplary genes, such as HTT, SMN2, and MYB, together with a control housekeeping gene, GAPDH or GUSB or PPIA, used for normalization. Briefly, the A673 or K562 cell line was treated with various compounds described herein (e.g., compounds of Formula (I)). After treatment, the levels of the HTT, MYB, or SMN2 mRNA targets were determined from each sample of cell lysate by cDNA synthesis followed by qPCR.
# (§2) • Cells-to-CT 1-step kit: ThermoFisher A25602, Cells-to-CT lysis reagent: ThermoFisher 4391851C, TaqMan™ Fast Virus 1-Step Master Mix: ThermoFisher 4444436 • GAPDH: VIC-PL, ThermoFisher 4326317E (Assay: Hs99999905_ml)—used for K562/suspension cell lines • GUSB: VIC-PL, ThermoFisher 4326320E (Assay: Hs99999908_ml)—used for K562/suspension cell lines • PPIA: VIC-PL, ThermoFisher 4326316E (Assay: Hs99999904_ml)—used for A673/adherent cell lines
# (§3) The A673 cell line was cultured in DMEM with 10% FBS. Cells were diluted with full growth media and plated in a 96-well plate (15,000 cells in 100 ul media per well). The plate was incubated at 37° C. with 5% CO2 for 24 hours to allow cells to adhere. An 11-point 3-fold serial dilution of the compounds was made in DMSO then diluted in media in an intermediate plate. Compounds were transferred from the intermediate plate to the cell plate with the top dose at a final concentration of 10 uM in the well. Final DMSO concentration was kept at or below 0.25%. The cell plate was returned to the incubator at 37° C. with 5% CO2 for an additional 24 hours.
# (§4) The K562 cell line was cultured in IMDM with 10% FBS. For K562, cells were diluted with full growth media and plated in either a 96-well plate (50,000 cells in 50 uL media per well) or a 384-well plate (8,000-40,000 cells in 45 uL media per well). An 11-point 3-fold serial dilution of the compounds were made in DMSO then diluted in media in an intermediate plate. Compound was transferred from the intermediate plate to the cell plate with the top dose at a final concentration of 10 uM in the well. Final DMSO concentration was kept at or below 0.25%. Final volume was 100 uL for 96-well plate and 50 uL for 384-well plate. The cell plate was then placed in an incubator at 37° C. with 5% CO2 for 24 hours.
# (§5) The cells were then gently washed with 50 uL-100 uL cold PBS before proceeding to addition of lysis buffer. 30 uL-50 μL of room temperature lysis buffer with DNAse I (and optionally RNAsin) was added to each well. Cells were shaken/mixed thoroughly at room temperature for 5-10 minutes for lysis to take place and then 3 uL-5 μL of room temperature stop solution was added and wells were shaken/mixed again. After 2-5 minutes, the cell lysate plate was transferred to ice for RT-qPCR reaction setup. The lysates could also be frozen at −80° C. for later use.
# (§6) In some cases, a direct lysis buffer was used. An appropriate volume of 3×lysis buffer (10 mM Tris, 150 mM NaCl, 1.5%-2.5% Igepal and 0.1-1 U/uL RNAsin, pH 7.4) was directly added to either K562 or A673 cells in media and mixed by pipetting 3 times. The plates were then incubated at room temperature with shaking/rocking for 20-50 minutes to allow for lysis to take place. After this time, the cell lysate plate was transferred to ice to set up for the RT-qPCR reactions. The lysates could also be frozen at −80° C. for later use. […]
# MYB CJ mRNA = assay: Gene panel canonical junction qPCR assay, MYB; assay type: cell-based; conditions: Homo sapiens, larger gene panel, read-out: MYB IC50 (decrease in CJ mRNA levels)
# Experimental: as §1, §3, §4
# (§7) The data analysis was performed by first determining the ΔCt vs the housekeeper gene. This ΔCt was then normalized against the DMSO control (ΔΔCt) and converted to RQ (relative quantification) using the 2^(−ΔΔCt) equation. The RQ were then converted to a percentage response by arbitrarily setting an assay window of 3.5 and 4.0 ΔCt for HTT-CJ and MYB-CJ respectively and an assay window of 9 and 3 ΔCt for HTT-AJ and MYB-AJ in 96 well format (50,000 K562 cells/well and 15,000 A673 cells per well) and an assay window of 3 and 4 ΔCt for HTT-CJ and MYB-CJ respectively and an assay window of 5 and 3 ΔCt for HTT-AJ and MYB-AJ respectively in 384 well format (8,000 K562 cells/well example). […] The percentage response was then fitted to the 4 parametric logistic equation to evaluate the concentration dependence of compound treatment. The increase in AJ mRNA is reported as AC50 (compound concentration having […] in AJ increase) while the decrease in CJ mRNA levels is reported as IC50 (compound concentration having 50% response in CJ decrease).
# (§8) Additional studies were carried out for a larger panel of genes using the protocol provided above. The junction between flanking upstream and downstream exons was used to design canonical junction qPCR assays. At least one of the forward primer, reverse primer or the CY5-labeled 5′ nuclease probe (with 3′ quencher such as ZEN/Iowa Black FQ) was designed to overlap with the exon junction to capture the CJ mRNA transcript. […]
# SMN2 CJ mRNA = assay: Gene panel canonical junction qPCR assay, SMN2; assay type: cell-based; conditions: Homo sapiens, larger gene panel, read-out: SMN2 IC50 (decrease in CJ mRNA levels)
# Experimental: as §1, §3, §4, §7, §8
# HTT CJ mRNA = assay: Gene panel canonical junction qPCR assay, HTT; assay type: cell-based; conditions: Homo sapiens, larger gene panel, read-out: HTT IC50 (decrease in CJ mRNA levels)
# Experimental: as §1, §3, §4, §7, §8
# HTT mRNA = assay: Splicing RT-qPCR assay, HTT canonical (CJ) and alternative (AJ) junction mRNA; assay type: cell-based; conditions: Homo sapiens, A673 or K562 cells, 24 hours treatment; for IC50: decrease in CJ mRNA; for AC50: increase in AJ mRNA
# Experimental: as §1, §2, §3, §4, §5, §6
# Target C CJ mRNA = assay: Gene panel canonical junction qPCR assay, Target C; assay type: cell-based; conditions: Homo sapiens, larger gene panel, read-out: Target C IC50 (decrease in CJ mRNA levels)
# Experimental: as §1, §3, §4, §7, §8
# [1] = tested on: HiBiT-tagged MYB protein in K562 cells; assay: HiBiT protein abundance assay, MYB; assay type: cell-based, human; conditions: HiBiT-modified K562 cells, 24 hours, luminescence
# Experimental: (§9) Compounds described herein were used to screen for effects on quantitative protein abundance using a HiBit assay system (Promega). Quantitative protein abundance was determined by measuring the protein levels of HiBit-tagged protein targets expressed in cell culture via luminescence using the Nano-Glo HiBiT Lytic Detection System, which uses a split complementation assay format to reconstitute NanoBiT enzyme to generate a luminescent signal. A protein abundance assay was developed such that endogenous protein targets could be modified with the HiBiT peptide tag and their abundance could be assessed after compound treatment. Briefly, K562 cell lines containing a HiBiT-modification were treated with various compounds described herein (e.g., compounds of Formulas (I), (II), or (III)). After treatment for 24 hours, the protein abundance of a specific target was determined by measuring luminescence.
# (§10) • Promega Nano-Glo HiBiT Lytic Detection System (cat #N3030) • Corning 384-well TC-treated microplates (cat #3570) • Synthego Engineered Cells Knock-In Clones
# (§11) Cells were maintained in IMDM with 10% FBS. Before the assay, cells were diluted with […] growth media (IMDM+1% FBS media) and were seeded in a 384-well plate at a density of 10000 cells/well (for each cell line listed in Table 5). Each compound was prepared as a 10-point 3-fold serial dilution in DMSO with the top dose at a final concentration of 10 μM in the well. Unmodified K562 cells were added at the previously specified density with DMSO to serve as an assay baseline and positive control (PC) and DMSO only with the respective modified cell lines was added to the negative control (NC) columns. Final DMSO concentration was kept at or below 0.25%. Treated cell plates were placed in an incubator at 37° C. with 5% CO2 for 24 hours. After 24 hours, 25 μL of Complete HiBit Lytic reagent was added to each well at room temperature (e.g. one plate requiring 10 mL Lytic Buffer, 100 μL LgBiT Protein, 200 μL Lytic Substrate), shaken for 5 minutes at 600 RPM, then left to sit for 10 minutes for signal to stabilize before reading on a Spark Cyto plate reader (Tecan) with a 500 ms measurement time.
# (§12) To determine compound effects on protein abundance of each target in Table 5, the percent response for each respective cell line was calculated at each compound concentration as follows:
# (§13) For the normalized response at each concentration, a four-parameter logistical regression was fit to the data and the response was interpolated at the 50% value to determine a concentration for protein abundance at 50% (IC50) the untreated control.
# [2] = tested on: HiBiT-tagged Target C protein in K562 cells; assay: HiBiT protein abundance assay, Target C; assay type: cell-based, human; conditions: HiBiT-modified K562 cells, 24 hours, luminescence
# Experimental: as §9, §10, §11, §12, §13
# [3] = tested on: HiBiT-tagged HTT protein in K562 cells; assay: HiBiT protein abundance assay, HTT; assay type: cell-based, human; conditions: HiBiT-modified K562 cells, 24 hours, luminescence
# Experimental: as §9, §10, §11, §12, §13
# [4] = Cell Titer Glo 2.0 cell viability assay; conditions: human, K562 cells
# Experimental: Compounds described herein were screened for toxicity in K562 (human chronic myelogenous leukemia) cells using a Cell Titer Glo 2.0 assay.
# • Promega CellTiter-Gbo® 2.0 Cell Viability Assay (cat #G9241) • Corning 384-well TC-treated microplates (cat #3570)
# Cells were plated at 500 cells/well (K562 cells) in 45 μL of IMDM supplemented with 10% FBS in a 384-well opaque plate. Wells containing only medium were used as a blank control. Test compounds (e.g., compounds of Formula (I), (II), and (III)) were first serially diluted in DMSO then diluted 1:100 with IMDM+10% FBS. The final concentration of DMSO was 0.1% in each well. The cells were incubated for 72 hours at 37° C. and 5% CO2 before assaying with Cell Titer Glo 2.0 reagent.
Compound,IC50 (MYB mRNA) [µM],IC50 (MYB CJ mRNA) [µM],IC50 (SMN2 CJ mRNA) [µM],IC50 (HTT CJ mRNA) [µM],IC50 (HTT mRNA) [µM],IC50 (Target C CJ mRNA) [µM],IC50 [1] [µM],IC50 [2] [µM],IC50 [3] [µM],AC50 (MYB mRNA) [µM],AC50 (HTT mRNA) [µM],GI50 at 72 h [4] [µM]
Cc1cn2cc(-c3cn4c(=O)cc(N5CCN(C)CC5)nc4s3)cc(F)c2n1 [Compound 184],> 10,> 10,1 to 10,> 10,> 10,–,–,–,–,1 to 10,> 10,–
"COc1c(-c2nc3ncn(C4CCNCC4)c(=O)c3s2)cc2cn(C)nc2c1C [Compound 335, 2-(6-methoxy-2,7-dimethylindazol-5-yl)-6-(piperidin-4-yl)-[1,3]thiazolo[4,5-d]pyrimidin-7-one]",–,–,–,–,–,–,> 10,> 10,> 10,–,–,> 10
O=c1c2sc(-c3ccc(-c4cn[nH]c4)cc3O)nc2ncn1C1CCNCC1 [Compound 334],–,–,–,–,–,–,> 10,> 10,> 10,–,–,> 10
Cc1c(O)c(-c2nc3c(=O)n(C4CCNCC4)cnc3s2)cc2cn(C)nc12 [Compound 283],–,–,–,–,–,–,1 to 10,1 to 10,1 to 10,–,–,1 to 10
"Cc1cn2cc(-c3cc4ncn([C@H]5CNCC[C@@H]5O)c(=O)c4s3)cc(F)c2n1 (relative stereo) [Compound 281, 6-{8-fluoro-2-methylimidazo[1,2-a]pyridin-6-yl}-3-[(trans)-4-hydroxypiperidin-3-yl]thieno[3,2-d]pyrimidin-4-one]",1 to 10,1 to 10,1 to 10,1 to 10,1 to 10,1 to 10,–,–,–,1 to 10,1 to 10,–
Cc1cn2cc(-c3cc4ncn([C@H]5CCNC[C@@H]5O)c(=O)c4s3)cc(F)c2n1 [Compound 280],0.1 to 1,0.1 to 1,0.1 to 1,0.1 to 1,0.1 to 1,0.1 to 1,–,–,–,0.1 to 1,0.1 to 1,–

# More lines, main results first:
IC50 (MYB mRNA) [µM],IC50 (MYB CJ mRNA) [µM],IC50 (SMN2 CJ mRNA) [µM],IC50 (HTT CJ mRNA) [µM],IC50 (HTT mRNA) [µM],IC50 (Target C CJ mRNA) [µM],IC50 [1] [µM],IC50 [2] [µM],IC50 [3] [µM],Compound,AC50 (MYB mRNA) [µM],AC50 (HTT mRNA) [µM],GI50 at 72 h [4] [µM]
–,–,1 to 10,1 to 10,1 to 10,–,–,–,–,"CN1CCN(c2nc3ncn(-c4ccc5nn(C)cc5c4)c(=O)c3s2)CC1 [Compound 182, 6-(2-methyl-2H-indazol-5-yl)-2-(4-methylpiperazin-1-yl)thiazolo[4,5-d]pyrimidin-7(6H)-one]",–,1 to 10,–
> 10,> 10,1 to 10,> 10,> 10,> 10,–,–,–,"Cc1cc(-c2cn3c(=O)cc(N4CCN(C)CC4)nc3s2)cc2cn(C)nc12 [Compound 183, 2-(2,7-dimethyl-2H-indazol-5-yl)-7-(4-methylpiperazin-1-yl)-5H-thiazolo[3,2-a]pyrimidin-5-one]",> 10,> 10,–
–,–,–,–,–,–,0.1 to 1,0.1 to 1,0.1 to 1,"Cc1c(O)c(-c2nc3ncn(C4CCNCC4)c(=O)c3s2)cc2cn(C)nc12 [Compound 336, 2-(6-hydroxy-2,7-dimethylindazol-5-yl)-6-(piperidin-4-yl)-[1,3]thiazolo[4,5-d]pyrimidin-7-one]",–,–,1 to 10
0.1 to 1,0.1 to 1,< 0.1,0.1 to 1,0.1 to 1,1 to 10,–,–,–,Cc1cc(-c2cc3ccn(C4CCN(C)CC4)c(=O)c3s2)cc2cn(C)nc12 [Compound 807],0.1 to 1,0.1 to 1,1 to 10
